In PMC6271731, “Multitarget Molecular Hybrids of Cinnamic Acids” (Molecules, 2014):

What was measured:
[1] = Inhibition of linoleic acid lipid peroxidation (AAPH); settings: % inhibition at 100 μM; pH 7.4, 37 °C
Experimental: Production of conjugated diene hydroperoxide by oxidation of sodium linoleate in an aqueous dispersion is monitored at 234 nm. AAPH is used as a free radical initiator [12, 24]. Ten microlitres of the 16 mM sodium linoleate solution was added to the UV cuvette containing 930 μL of 0.05 M phosphate buffer, pH 7.4 prethermostated at 37 °C. The oxidation reaction was initiated at 37 °C under air by the addition of 40 mM AAPH solution (50 μL). Ten μL of the tested compounds were added in the mixture. Lipid oxidation was measured in the presence of the same level of DMSO. The rate of oxidation at 37 °C was monitored by recording the increase in absorption at 234 nm caused by conjugated diene hydroperoxides. The results were compared to the appropriate standard inhibitor trolox (63%) (Table 1).

soybean lipoxygenase = biological target: T1, soybean lipoxygenase (Glycine max, UniProt P08170); assay: Soybean lipoxygenase inhibition in vitro; type: biochemical
T1 construct: purchased Sigma Chemical, Co. (St. Louis, MO, USA)
T1 sequence (P08170 1-839): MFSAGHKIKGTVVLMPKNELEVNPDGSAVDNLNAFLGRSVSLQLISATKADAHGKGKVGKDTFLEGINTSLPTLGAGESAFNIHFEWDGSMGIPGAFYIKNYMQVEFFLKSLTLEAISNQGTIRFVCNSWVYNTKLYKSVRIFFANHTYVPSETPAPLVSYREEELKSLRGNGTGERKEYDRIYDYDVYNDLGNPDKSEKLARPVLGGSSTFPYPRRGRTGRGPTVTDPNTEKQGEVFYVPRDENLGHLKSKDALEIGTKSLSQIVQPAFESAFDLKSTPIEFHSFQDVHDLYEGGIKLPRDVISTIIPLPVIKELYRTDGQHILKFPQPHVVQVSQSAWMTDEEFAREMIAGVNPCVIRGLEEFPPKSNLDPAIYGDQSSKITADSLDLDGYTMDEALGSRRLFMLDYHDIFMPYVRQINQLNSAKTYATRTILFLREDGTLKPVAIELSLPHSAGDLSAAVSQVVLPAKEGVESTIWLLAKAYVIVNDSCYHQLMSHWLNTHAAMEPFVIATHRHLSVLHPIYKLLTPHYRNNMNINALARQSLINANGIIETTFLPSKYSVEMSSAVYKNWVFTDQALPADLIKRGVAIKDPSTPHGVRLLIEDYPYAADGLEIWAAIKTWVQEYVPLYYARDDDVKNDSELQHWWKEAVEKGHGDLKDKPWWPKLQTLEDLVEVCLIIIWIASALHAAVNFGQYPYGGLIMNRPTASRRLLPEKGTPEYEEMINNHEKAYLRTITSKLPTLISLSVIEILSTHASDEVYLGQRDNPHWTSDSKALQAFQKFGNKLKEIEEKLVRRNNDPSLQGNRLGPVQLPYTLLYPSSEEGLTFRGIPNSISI
Experimental: DMSO solution of the tested compound was incubated with sodium linoleate (0.1 mM) and 0.2 mL of soybean lipoxygenase solution (1/9 × 10^−4 w/v in saline) in buffer pH 9 (tris) and at room temperature. […] The results are given in Table 1 expressed as IC50 values or % inhibition at 100 μM.

[2] = biological target: T2, pancreatic bovine trypsin (Bos taurus, UniProt P00760); assay: Inhibition of trypsin induced proteolysis in vitro; type: biochemical; settings: bovine albumin substrate, pH 7.6, 37 °C; read-out: IC50 μM Trypsin Inh.
T2 construct: purchased Sigma Chemical, Co. (St. Louis, MO, USA)
T2 sequence (P00760 24-246): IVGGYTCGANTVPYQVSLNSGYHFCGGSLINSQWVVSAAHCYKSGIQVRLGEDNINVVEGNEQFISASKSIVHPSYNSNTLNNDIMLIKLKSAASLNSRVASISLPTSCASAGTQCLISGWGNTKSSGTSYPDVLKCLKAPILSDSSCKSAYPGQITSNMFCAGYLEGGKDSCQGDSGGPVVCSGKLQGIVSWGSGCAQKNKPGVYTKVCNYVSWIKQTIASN
Text: All chemicals, solvents, chemical and biochemical reagents were of analytical grade and purchased from commercial sources (Merck, Merck KGaA, Darmstadt, Germany, Fluka Sigma-Aldrich Laborchemikalien GmbH, Hannover, Germany, Alfa Aesar, Karlsruhe, Germany and Sigma, St. Louis, MO, USA). Soybean lipoxygenase, pancreatic bovine trypsin, sodium linoleate, free radical DPPH and 2,2-azinobis-2-methyl-propanimidamine HCl (AAPH) were obtained from Sigma Chemical, Co. (St. Louis, MO, USA), carrageenin, type K, was commercially available. All starting materials were obtained from commercial sources and used without further purification.
The test was carried out according to a modified Kunitz method. Bovine albumin was used as substrate for trypsin. The reaction mixture consisted of 0.075 mg/mL trypsin (200 μL) and 780 μL of phosphate buffer pH 7.6 (including the tested compounds (20 μL in DMSO, final concentration 100 μM) preincubated at 37 °C for 20 min and then 1 mL of albumin (stock solution 6 g/100 mL in phosphate buffer 0.1 M, pH 7.6) was added and incubated at 37 °C for 30 min. After the incubation 1 mL of 5% trichloroacetic acid was added to the incubated solution to stop the enzyme’s reaction and allowed to set at room temperature for 1 h. Then the solution was filtered by filter paper and the absorption of the filtered solution was measured at 280 nm. Salicylic acid was used as a reference compound (Table 1).

[3] = In vitro stability under acidic and basic conditions; type: physicochemical; settings: pH 3, 4.5 and 9, 37 °C, 24 h
Experimental: In an attempt to mimic the acidic/basic conditions in the gastrointestinal route, measurements at pH: (i) 3; (ii) 4.5 and (iii) 9 were performed. The pH value was adjusted with the appropriate buffer (CH3COONa/CH3COOH) to 4.5 and 3 and Tris to pH 9. 20 μL of the tested compounds in DMSO and buffer 980 μL (4.5 or 3 pH) incubated at 37 °C for 24 h. The stability of the compounds was monitored chromatographically after 3 and 9 h. After 24 h, the incubated solution (in all cases) was treated with chloroform (1 mL). The organic layer was analyzed spectrophotometrically.

sciatic nerve crush = assay: Recovery of motor and sensory functions after sciatic nerve crush; type: in vivo, Wistar rats; settings: adult rats, intraperitoneally after the compression of the nerve
Experimental: The locomotor function recovery was examined through the flat runway test, the inclined plane runway test, the grid walking test and the Sciatic Functional Index (SFI) calculation.
One day prior to the surgery and the behavioral testing, Wistar rats were handled by the investigators and introduced to the testing environment for a brief period of time. Rats were anesthetized with chloral hydrate 4.5% (1 mL/100 g). […] After the exposure, the nerve was crushed once for 30 s at standardized force. The muscle was reapproximated and the skin incision was closed using 6 to 0 sutures. The examination of the loss of sensory and motor function in the operated limb established the crush completeness. Digits in the operated limb were pinched with a blunt forceps. Absence of foot withdrawal and vocalization was recorded as loss of sensory and motor function. Animals were placed under a heating lamp until they recovered from the anesthesia and they returned to their home cages.
The tested solutions were freshly prepared on surgery day (day 0).
The animals were subjected to a locomotor testing one day before the surgery and on the 1st, 8th, 15th and 22nd day after the sciatic nerve injury. The day of the surgery is considered as day 0 [36, 37, 38].

## CC(=O)Nc1ccc(OC(=O)/C=C/c2cccc(Oc3ccccc3)c2)cc1 [Compound 2a, (E)-4-Acetamidophenyl 3-(3-phenoxyphenyl)acrylate]
[1]
  AAPH % (% inhibition of lipid peroxidation): 90%
Soybean lipoxygenase
  IC50: 100 µM
[2]
  IC50: 10 µM
[3]
  stability under acidic and basic conditions: confirmed the stability
Sciatic nerve crush
  recovering motor and sensory functions: effective in recovering motor and sensory functions
